According to patent US11702402B2, “Small molecules that block proteasome-associated ubiquitin receptor RPN13 function and uses thereof” (DANA-FARBER CANCER INSTITUTE, INC., priority 2018, dated 2023):
Entries after “also recorded” stand apart in the source; their conditions may differ.

Columns and labels:
[1] = system: multiple myeloma cell lines; test: Viability of a panel of multiple myeloma cell lines; assay type: cell-based, Human
Text: FIGS. […] Wst-1 assay was used to test cell viability. FIGS. 6A and 6B show the effect of exemplary bifunctional compounds WL40 and WL44 on multiple myeloma cell lines.

RPN13 = RPN13 (Homo sapiens, UniProt Q16186); test: Rpn13 immunoblot in MM.1S cells; assay type: cell-based; parameters: endogenous in cells; host or cells: MM.1S; MM.1S-CRBN KO; RPMI-8226; ANBL6.BR; settings: MM.1S cells; for Rpn13 levels (immunoblot): 200 nM, 400 nM, 800 nM, 4, 8, 16 hours
Sequence of RPN13 (Q16186 whole entry): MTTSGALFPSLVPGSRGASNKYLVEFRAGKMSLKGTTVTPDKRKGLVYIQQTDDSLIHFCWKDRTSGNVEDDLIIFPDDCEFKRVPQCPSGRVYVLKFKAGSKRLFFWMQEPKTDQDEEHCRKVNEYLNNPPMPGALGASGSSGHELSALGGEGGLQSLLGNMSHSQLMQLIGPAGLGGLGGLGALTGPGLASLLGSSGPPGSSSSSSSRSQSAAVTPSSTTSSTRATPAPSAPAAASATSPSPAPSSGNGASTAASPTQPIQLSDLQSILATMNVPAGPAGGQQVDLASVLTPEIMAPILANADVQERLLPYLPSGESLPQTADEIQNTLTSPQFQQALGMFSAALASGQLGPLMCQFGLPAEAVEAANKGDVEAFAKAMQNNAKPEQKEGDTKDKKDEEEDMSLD
Description: Protein lysates were loaded on SDS-PAGE and transferred to PVDF membrane, and then immunoblotted with anti-alpha tubulin and Rpn13 antibodies.
In FIG. 17, MM.1S cells were treated with RA190 or JQRA at 200 nM and 400 nM, respectively, for 48 hours; and treated with RA190 or JQRA at 200 nM and 800 nM, respectively, for 48 hours. Protein lysates were loaded on SDS-PAGE and transferred to PVDF membrane, and then immunoblotted with anti-alpha tubulin and Rpn13 antibodies.
MM.1S cells, which were treated with DMSO control, bortezomib, or WL40 at indicated concentration for 3 hours; protein lysates were analyzed for different proteasome activities (CT-L, chymotrypsin-like; T-L, trypsin-like; C-L, caspase-like). FIG. 20B is a bar graph showing percent proteasome activity after normalization with DMSO control (mean±SD; n=3). Recombinant 20S proteasome was incubated with DMSO, bortezomib, or WL40 for 30 minutes, followed by assessment of the above-noted proteasome activities. FIG. 20C MM.1S cells were pretreated with exemplary proteasome inhibitor MG132 (10 μM) for 1 hour, followed by addition of WL40 (400 nM) for 8 hours. […] Total protein lysates were subjected to immunoblots for Rpn13 and α-tubulin. […] FIG. 20E ANBL6.BR cells were treated with WL40 (400 nM) or RA190 (500 nM) for 16 hours; protein lysates were subjected to immunoblot analysis using anti-Rpn13 or anti-β-actin Abs.
Cellular protein extracts were prepared using RIPA lysis buffer (50 mM Tris-HCl, 150 mM NaCl, 1% NP-40, 0.5% sodium deoxycholate, and 0.1% SDS). Protein lysates were subjected to immunoblotting using antibodies against poly ADP ribose polymerase (PARP, BD Bioscience Pharmingen, San Diego, Calif.), caspase 3, caspase 8, p53 (Santa Cruz Biotechnology), caspase 9, p-eIF2a (Abeam, Cambridge, Mass.), caspase 7, cyclin B1, CDC25C, CDCl2, p21, Rpn13, PERK, BIP, Calnexin, GFP, LC3A/B, α-tubulin (Cell Signaling, Beverly, Mass.), polyubiquitin (Enzo Life Sciences, Inc., Farmingdale, N.Y.), or β-actin (Sigma-Aldrich, St. Louis, Mo.).
Next, it was examined whether WL40 decreases cellular Rpn13 levels in MM cells. MM.1S cells were treated with various concentrations of WL40 (20 0 nM, 400 nM, or 800 nM) for 4 hours, 8 hours, and 16 hours; protein lysates were then analyzed for Rpn13 levels using immunoblot analysis. […] Decrease in Rpn13 levels was detectable as early as 8 hours after WL40 treatment and maximally (95%) reduced at 16 hours. Rpn13 protein level reduction was not observed with RA190 treatment (FIG. 19E, lower panel). There was no change in protein levels of tubulin, used as a loading control (FIG. 19E). To further corroborate the findings, MM.1S cells were treated with WL40, and then analyzed intracellular alterations in Rpn13 using flow cytometry.

[2] = system: UPR proteins (BIP, PERK, phosphorylated eIF2α, calnexin); test: UPR protein immunoblot; assay type: cell-based, Human; settings: ANBL6.BR (1 μM) and MM.1S (WL40 200 nM, RA190 300 nM)
human MM.1S MM tumors = test: Human MM xenograft model; assay type: in vivo; settings: for host survival / tumor growth: MM.1S-bearing mice, i.p., WL40 14.7 μM/kg, RA190 26.8 μM/kg; for host survival: twice weekly; for tumor growth: twice weekly for 18 days
Description: FIG. 23B are Kaplan-Meier plots which show survival of mice. […] The lysates were subjected to the immunoblot analysis using anti-polyubiquitin, anti-cleaved-caspase-8, or anti-β-actin Abs. FIG. 23D show tumor sections from the vehicle control, and WL40-treated mice that were stained with anti-polyubiquitin, Ki67, caspase-3 (cleaved form), and CD31 antibodies. Scale bar, 10 μm.
Animal model studies were performed as described previously.^32, 33, 36 Briefly, CB17 SCID mice were subcutaneously inoculated with 5.0×10^6 MM.1S cells. When tumors were measurable (100 mm^3) at approximately 3 weeks after MM-cell injection, mice (10 mice/group) were treated on a twice-weekly schedule with vehicle alone, WL40, or RA190. Mice were euthanized when tumor volume reached institutional limit (2000 mm^3). All animal experiments protocols were approved by and conformed to the relevant regulatory standards of the Institutional Animal Care and Use Committee at the Dana-Farber Cancer Institute.
Tumors were harvested from WL40-treated and control animals. Tumor sections were fixed and paraffin embedded for immunostaining to detect growth inhibition (Ki67), apoptosis (cleaved caspase-3), poly-ubiquitination (PolyU), and angiogenesis (CD31), as described previously.^32, 34 Tumor protein lysates from control vehicle- and WL40-treated mice were analyzed for caspase-8, poly-Ubiquitin or β-actin level using immunoblot analyses.
To fully understand the therapeutic potential of the RPN13 degrader, the in vivo efficacy of WL40 was evaluated using the human plasmacytoma xenograft mouse model.^3, 34 This model has been useful in validating novel anti-MM therapies bortezomib, carfilzomib, ixazomib, lenalidomide, and pomalidomide, which have translated to clinical trials and FDA approval.

MM.1S cells [3] = test: MM.1S cell viability (WST); settings: for combination effect on viability (isobologram, CI): 48 hours, WST
Description: (§1) FIGS. 4A and 4B show multiple myeloma 1S (MM.1S) cells treated with RA190, WL40, and WL44 at the indicated concentrations for 24 hours. Wst-1 assay was used to test cell viability.
(§2) In FIG. 13B, multiple myeloma cells (MM.1S) were treated with RA190 or compound JQRA at the indicated concentrations for 72 hours, and the percentage of viable cells was measured.
(§3) Purified CD138^+ patient MM cells, which were treated with DMSO control or WL40 at indicated concentrations for 48 hours, followed by assessment for cell viability using CellTiter-Glo assay (mean±SD of triplicate cultures; p<0.001). […] Normal PBMCs from healthy donors were treated with DMSO control or WL40 at indicated concentrations for 48 hours, and then analyzed for cell viability using CellTiter-Glo assay (mean±SD of quadruplicate cultures). […] MM.1S cells were cultured with or without patient BMSCs in the presence or absence of WL40 for 48 hours, and cell proliferation was measured by WST assay (mean±SD; n=3; p<0.0001). […] MM.1S cells were cultured with or without patient pDCs in the presence or absence of WL40 for 48 hours, and cell proliferation was measured by WST assay (mean±SD; n=3; p<0.0001).

MM.1S cells [4] = settings: human, 48 h
Description: as §1, §2, §3

SMILES	cytotoxicity (percentage of viable cells) ([1]; different multiple myeloma cell lines, 72 hours)	Rpn13 levels (immunoblot) (RPN13)	induction of UPR signaling [2]	host survival (human MM.1S MM tumors)	tumor growth (human MM.1S MM tumors)	cytotoxicity (percentage of viable cells) (MM.1S cells [3]; 72 hours)	cell viability IC50 ([1]; multiple myeloma cell lines, 48 hours, Wst-1)	time at which decrease in Rpn13 levels is detectable (RPN13; after WL40 treatment) [h]	maximal reduction of Rpn13 levels (RPN13; at 16 hours) [%]	cytotoxicity (cell viability) (MM.1S cells [4])	tolerability (human MM.1S MM tumors; WL40-treated mice)	body weight loss (human MM.1S MM tumors; WL40-treated mice (data not shown))	PolyUb proteins in harvested tumors (human MM.1S MM tumors; relative to tumors from control mice)	angiogenesis in harvested tumors (CD31) (human MM.1S MM tumors; tumor sections)	apoptosis in harvested tumors (cleaved caspase-3) (human MM.1S MM tumors; tumor sections)	proliferation in harvested tumors (Ki67) (human MM.1S MM tumors; tumor sections)	cell viability IC50 (MM.1S cells [3]; 24 hours, Wst-1)	combination effect on viability (isobologram, CI) (MM.1S cells [3]; WL40 plus bortezomib)	combination effect on viability (isobologram, CI) (MM.1S cells [3]; WL40 plus lenalidomide)	combination effect on viability (isobologram, CI) (MM.1S cells [3]; WL40 plus pomalidomide)
Cl.N[C@@H](Cc1ccccc1)C(=O)N1C/C(=C/c2ccc(Cl)c(Cl)c2)C(=O)/C(=C\c2ccc(Cl)c(Cl)c2)C1 [RA190, reference compound]	stronger cytotoxicity than JQRA	not observed	delayed kinetics and to a lesser extent than Rpn13 degrader WL40	extends mice survival	attenuates MM tumor progression	stronger MM cytotoxicity compared to exemplary compound JQRA; also recorded: more robust MM cytotoxicity	–	–	–	–	–	–	–	–	–	–	–	–	–	–
O=C1CCC(N2C(=O)c3cccc(NCCOCCOCCOCCC(=O)N[C@@H](Cc4ccccc4)C(=O)N4C/C(=C\c5ccc(Cl)c(Cl)c5)C(=O)/C(=C/c5ccc(Cl)c(Cl)c5)C4)c3C2=O)C(=O)N1 (stereo partly drawn) [WL40]	–	degrade Rpn13; also recorded: marked decrease in Rpn13 levels	rapid and robust induction of UPR proteins	prolongs host survival	inhibits xenografted human MM cell growth; also recorded: more potent in vivo anti-MM activity	–	high IC50 in several cell lines	8	95	more cytotoxic than the parental Rpn13 inhibitor RA190	well tolerated	no significant weight loss	increased accumulation of PolyUb proteins	blocks angiogenesis	induces apoptosis	decreases proliferation	lower IC50 compared to compound RA190	synergistic anti-MM activity	synergistic anti-MM activity	synergistic anti-MM activity
